Test results: patent US9555050B2 (BIOGEN MA INC., priority 2012, dated 2017)

Molecular target: T1, Human ATX protein (Homo sapiens, UniProt Q13822)
T1 construct: made in house
Experiment: ATX biochemical FRET assay with FS-3 substrate
Conditions: FS-3 substrate 2 μM, ATX 1.0 μg/mL, 30 min preincubation, 2 hours at room temperature
How it was run: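 In-house purified human ATX (1.0 μg/mL final) pre-incubated 30 min at room temperature with compound in Tris buffer pH 7.4 with salts and 1 mg/mL fatty acid-free BSA. FS-3 substrate (2 μM final) then hydrolysed 2 h at room temperature, protected from light; fluorescence read at 485/538 nm.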

SMILES | IC50
CC(c1ccc2c(C(F)(F)F)c(O[C@H]3CC[C@@H](C)CC3)ccc2c1)N1CCC(C(=O)O)CC1 (relative stereo) [Example 45, 1-(1-(5-trifluoromethyl-6-(cis-4-methylcyclohexyloxy)naphthalene-2-yl)ethyl)-piperidine-4-carboxylic acid] | ≤ 500 nM
CC(c1ccc2c(C(F)F)c(O[C@H]3CC[C@@H](C)CC3)ccc2c1)N1CCC[C@H](CC(=O)O)C1 (stereo partly drawn) [Example 53, 2-((3R)-1-(1-(6-((cis-4-Methylcyclohexyl)oxy)-5-(difluoromethyl)naphthalen-2-yl)ethyl)piperidin-3-yl)acetic acid] | ≤ 100 nM
O=C(O)C1CCCCN1Cc1ccc2c(C(F)(F)F)c(O[C@H]3CC[C@@H](C(F)(F)F)CC3)ccc2c1 (relative stereo) [Example 29, 1-((5-(trifluoromethyl)-6-((cis)-4-(trifluoromethyl)cyclohexyloxy)naphthalen-2-yl)methyl)piperidine-2-carboxylic acid] | ≤ 500 nM
O=C(O)[C@H]1CC[C@@H](NCc2ccc3c(C(F)(F)F)c(O[C@H]4CC[C@@H](C(F)(F)F)CC4)ccc3c2)CC1 [Example 70, cis-4-(((5-(trifluoromethyl)-6-((cis)-4-(trifluoromethyl)cyclohexyloxy)naphthalene-2-yl)methyl)amino)cyclohexane-1-carboxylic acid] | ≤ 500 nM
CC(c1ccc2c(C(F)(F)F)c(O[C@H]3CC[C@@H](C)CC3)ccc2c1)N1CCC[C@H](CC(=O)O)C1 (stereo partly drawn) [Example 51, 2-((3R)-1-(1-(6-((cis-4-Methylcyclohexyl)oxy)-5-(trifluoromethyl)naphthalen-2-yl)ethyl)piperidin-3-yl)acetic acid] | ≤ 100 nM
O=C(O)[C@H]1CCCN(Cc2ccc3c(C(F)(F)F)c(O[C@H]4CC[C@@H](C(F)(F)F)CC4)ccc3c2)C1 [Example 26, (S)-1-((5-(trifluoromethyl)-6-((cis)-4-(trifluoromethyl)cyclohexyloxy)naphthalen-2-yl)methyl)piperidine-3-carboxylic acid] | ≤ 250 nM
C[C@@H](c1ccc2c(C(F)F)c(O[C@H]3CC[C@@H](C)CC3)ccc2c1)N1CCC(C(=O)O)CC1 [Example 61, 1-((S)-1-(6-((cis-4-Methylcyclohexyl)oxy)-5-(difluoromethyl)naphthalen-2-yl)ethyl)piperidine-4-carboxylic acid] | ≤ 250 nM
C[C@H]1CC[C@@H](Oc2ccc3cc(CN4CCOC(CC(=O)O)C4)ccc3c2C(F)(F)F)CC1 (stereo partly drawn) [Example 8] | ≤ 500 nM
O=C(NCCCP(=O)(O)O)c1ccc2c(C(F)(F)F)c(OCc3cc(Cl)cc(Cl)c3)ccc2c1 [Example 18, (3-(6-((3,5-dichlorobenzyl)oxy)-5-(trifluoromethyl)-2-naphthamido)propyl)phosphonic acid] | ≤ 100 nM
O=C(O)CC1CCN(Cc2ccc3c(C(F)(F)F)c(O[C@H]4CC[C@@H](C(F)(F)F)CC4)ccc3c2)CC1 [Example 65, 1-((5-(trifluoromethyl)-6-((cis-4-(trifluoromethyl)cyclohexyl)oxy)-naphthalen-2-yl)methyl)piperidine-4-acetic acid] | ≤ 250 nM
O=C(O)C1CCC(NCc2ccc3c(C(F)(F)F)c(O[C@H]4CC[C@@H](C(F)(F)F)CC4)ccc3c2)C1 (relative stereo) [Example 66, 1-((5-(trifluoromethyl)-6-((cis-4-(trifluoromethyl)cyclohexyl)oxy)-naphthalen-2-yl)methyl)aminocyclopentane-3-carboxylic acid] | ≤ 500 nM
O=C(NCCCP(=O)(O)O)c1ccc2c(C(F)(F)F)c(O[C@H]3CC[C@@H](C(F)(F)F)CC3)ccc2c1 [Example 19, (3-(5-(trifluoromethyl)-6-((cis-4-(trifluoromethyl)cyclohexyl)oxy)-2-naphthamido)propyl)phosphonic acid] | ≤ 100 nM
O=C(O)C1CCN(Cc2ccc3c(C(F)(F)F)c(N[C@H]4CC[C@@H](C(F)(F)F)CC4)ccc3c2)CC1 [Example 22, 1-((5-(trifluoromethyl)-6-((cis-4-(trifluoromethyl)cyclohexyl)amino)naphthalen-2-yl)methyl)piperidine-4-carboxylic acid] | ≤ 250 nM
O=C(O)C[C@@H]1CCN(Cc2ccc3c(C(F)(F)F)c(O[C@H]4CC[C@@H](C(F)(F)F)CC4)ccc3c2)C1 [Example 71, (S)-1-((5-(trifluoromethyl)-6-((cis)-4-(trifluoromethyl)cyclohexyloxy)naphthalene-2-yl)methyl)pyrrolidine-3-acetic acid] | ≤ 500 nM
CC1CN(Cc2ccc3c(C(F)(F)F)c(O[C@H]4CC[C@@H](C(F)(F)F)CC4)ccc3c2)CCC1C(=O)O (relative stereo) [Example 74, 1-((5-(trifluoromethyl)-6-((cis-4-(trifluoromethyl)cyclohexyl)oxy)-naphthalen-2-yl)methyl)-3-methylpiperidine-4-carboxylic acid] | ≤ 500 nM
O=C(O)C1CCCN(C(=O)c2ccc3c(C(F)(F)F)c(O[C@H]4CC[C@@H](C(F)(F)F)CC4)ccc3c2)CC1 (relative stereo) [Example 31, 1-(5-(trifluoromethyl)-6-((cis)-4-(trifluoromethyl)cyclohexyloxy)-2-naphthoyl)azepane-4-carboxylic acid] | ≤ 500 nM
CC(C)C(NC1CC(C(=O)O)C1(C)C)c1ccc2c(C(F)(F)F)c(O[C@H]3CC[C@@H](C(F)(F)F)CC3)ccc2c1 (relative stereo) [Example 39, 2,2-dimethyl-3-(2-methyl-1-(5-(trifluoromethyl)-6-((cis)-4-(trifluoromethyl)cyclohexyloxy)naphthalen-2-yl)propylamino)cyclobutanecarboxylic acid] | ≤ 250 nM
NC1(C(=O)O)CCN(Cc2ccc3c(C(F)(F)F)c(O[C@H]4CC[C@@H](C(F)(F)F)CC4)ccc3c2)C1 (relative stereo) [Example 78, 1-((5-(trifluoromethyl)-6-((cis-4-(trifluoromethyl)cyclohexyl)oxy)-naphthalen-2-yl)methyl)-3-aminopyrrolidine-3-carboxylic acid] | ≤ 500 nM
